Laboratory results taken from ChEMBL document CHEMBL4334471, “Discovery of 1,8-disubstituted-[1,2,3]triazolo[4,5-c]quinoline derivatives as a new class of Hippo signaling pathway inhibitors” (Bioorg Med Chem Lett, 2019).

Experiments:
[1] = tested on: Proto-oncogene tyrosine-protein kinase receptor Ret (Homo sapiens), P07949 [V804L]; test: Inhibition of recombinant human Ret V804L mutant (658 to end residues) assessed as residual activity at 10 uM using KKKSPGEYVNIEFG as substrate incubated for 40 mins in presence of [gamma33P]ATP by scintillation counting based radiometry assay relative to control
[2] = species on record: Homo sapiens; test: Inhibition of recombinant human Plk4 S34T mutant (1 to 273 residues) assessed as residual activity at 10 uM using casein as substrate incubated for 40 mins in presence of [gamma33P]ATP by scintillation counting based radiometry assay relative to control
[3] = target: Mitogen-activated protein kinase kinase kinase 5 (Homo sapiens) (UniProt Q99683); test: Inhibition of recombinant human ASK1 (649 to 946 residues) assessed as residual activity at 10 uM using myelin basic protein as substrate incubated for 40 mins in presence of [gamma-33ATP] by scintillation counting based radiometry assay relative to control
[4] = target: Tau-tubulin kinase 2 (Homo sapiens) (UniProt Q6IQ55); test: Inhibition of recombinant human TTBK2 (1 to 331 residues) assessed as residual activity at 10 uM using casein as substrate incubated for 40 mins in presence of [gamma33P]ATP by scintillation counting based radiometry assay relative to control
[5] = target: Dual specificity tyrosine-phosphorylation-regulated kinase 1B (Homo sapiens) (UniProt Q9Y463); test: Inhibition of recombinant human DYRK1B assessed as residual activity at 10 uM using RRRFRPASPLRGPP as substrate at 40 mins in presence of [gamma-33ATP] by scintillation counting based radiometry assay relative to control
[6] = target: Ephrin type-A receptor 7 (Homo sapiens) (UniProt Q15375); test: Inhibition of recombinant human EphA7 (613 to 909 residues) assessed as residual activity at 10 uM using KTFCGTPEYLAPEVRREPRILSEEEQEMFRDFDYIADWC as substrate at 40 mins in presence of [gamma-33ATP] by scintillation counting based radiometry assay relative to control
[7] = target: Cyclin-dependent kinase-like 4 (Homo sapiens) (UniProt Q5MAI5); test: Inhibition of recombinant full length human CDKL4 assessed as residual activity at 10 uM in presence of [gamma-33ATP] by scintillation counting based radiometry assay relative to control
[8] = target: Calcium/calmodulin-dependent protein kinase type II subunit gamma (Homo sapiens) (UniProt Q13555); test: Inhibition of recombinant human CaMK2gamma (1 to 330 residues) assessed as residual activity at 10 uM using […] incubated for 40 mins in presence of [gamma-33ATP] by scintillation counting based radiometry assay relative to control
[9] = target: Serine/threonine-protein kinase BRSK1 (Homo sapiens) (UniProt Q8TDC3); test: Inhibition of recombinant human BRSK1 ( 2 to end residues) assessed as residual activity at 10 uM using KKKVSRSGLYRSPSMPENLNRPR substrate incubated for 40 mins in presence of [gamma-33ATP] by scintillation counting based radiometry assay relative to control
[10] = target: Non-receptor tyrosine-protein kinase TYK2 (Homo sapiens) (UniProt P29597); test: Inhibition of recombinant human TYK2 (875 to end residues) assessed as residual activity at 10 uM using GGMEDIYFEFMGGKKK as substrate incubated for 40 mins in presence of [gamma33P]ATP by scintillation counting based radiometry assay relative to control
[11] = target: Tyrosine-protein kinase ABL1 (Homo sapiens) (UniProt P00519); test: Inhibition of human ABL1 (27 to end residues) at 10 uM using EAIYAAPFAKKK as substrate incubated for 40 mins in presence of [gamma-33ATP] by scintillation counting based radiometry assay relative to control; parameters: scale not given: the % may be the effect or the level left
[12] = target: 5'-AMP-activated protein kinase catalytic subunit alpha-2 (Homo sapiens) (UniProt P54646); test: Inhibition of recombinant full length human AMPKalpha2 assessed as residual activity at 10 uM using AMARAASAAALAR as substrate incubated for 40 mins in presence of [gamma-33ATP] by scintillation counting based radiometry assay relative to control
[13] = target: Serine/threonine-protein kinase PAK 5 (Homo sapiens) (UniProt Q9P286); test: Inhibition of recombinant human PAK5 (425 to end residues) assessed as residual activity at 10 uM using RRRLSFAEPG as substrate measured after 40 mins in presence of [gamma33P]ATP by scintillation counting based radiometry assay relative to control
[14] = target: Serine/threonine-protein kinase ICK (Homo sapiens) (UniProt Q9UPZ9); test: Inhibition of human ICK (1 to 312 residues) assessed as residual activity at 10 uM using RRRFRPASPLRGP as substrate after 40 mins by [gamma-33ATP] radiometric assay relative to control
[15] = target: Tyrosine-protein kinase Lck (Homo sapiens) (UniProt P06239); test: Inhibition of recombinant full length human LCK assessed as residual activity at 10 uM using KVEKIGEGTYGVV as substrate after 40 mins in presence of [gamma-33ATP] by scintillation counting based radiometry assay relative to control
[16] = target: Beta-adrenergic receptor kinase 1 (Homo sapiens) (UniProt P25098); test: Inhibition of recombinant full length human GRK2 assessed as residual activity at 10 uM using casein as substrate at 40 mins in presence of [gamma-33ATP] by scintillation counting based radiometry assay relative to control
[17] = target: Serine/threonine-protein kinase Nek11 (Homo sapiens) (UniProt Q8NG66); test: Inhibition of recombinant full length human NEK11 assessed as residual activity at 10 uM using myelin basic protein as substrate measured after 40 mins in presence of [gamma33P]ATP by scintillation counting based radiometry assay relative to control
[18] = tested on: RAC-gamma serine/threonine-protein kinase (Homo sapiens), Q9Y243 [S472D]; test: Inhibition of recombinant human PKBgamma S472D mutant (117 to end residues) assessed as residual activity at 10 uM using GRPRTSSFAEGKK as substrate incubated for 40 mins in presence of [gamma33P]ATP by scintillation counting based radiometry assay relative to control
[19] = tested on: Protein kinase C eta type (Homo sapiens), P24723 [UNDEFINED MUTATION]; test: Inhibition of recombinant human PKCeta V108L/G109R/L392Q mutant (2 to end residues) assessed as residual activity at 10 uM using ERMRPRKRQGSVRRRV as substrate incubated for 40 mins in presence of [gamma33P]ATP by scintillation counting based radiometry assay relative to control
[20] = species on record: Mus musculus; test: Inhibition of mouse ABL1 L782P/G784R/W785L/L786V mutant (27 to end residues) at 10 uM using EAIYAAPFAKKK as substrate incubated for 40 mins in presence of [gamma-33ATP] by scintillation counting based radiometry assay relative to control; parameters: scale not given: the % may be the effect or the level left
[21] = target: Calcium/calmodulin-dependent protein kinase type 1G (Homo sapiens) (UniProt Q96NX5); test: Inhibition of recombinant full length human CaMKIgamma assessed as residual activity at 10 uM using KKLRRTLSFAEPG as substrate incubated for 40 mins in presence of [gamma-33ATP] by scintillation counting based radiometry assay relative to control

Chain of Tau-tubulin kinase 2 (Homo sapiens) (Q6IQ55 whole entry, the tested form may be a part): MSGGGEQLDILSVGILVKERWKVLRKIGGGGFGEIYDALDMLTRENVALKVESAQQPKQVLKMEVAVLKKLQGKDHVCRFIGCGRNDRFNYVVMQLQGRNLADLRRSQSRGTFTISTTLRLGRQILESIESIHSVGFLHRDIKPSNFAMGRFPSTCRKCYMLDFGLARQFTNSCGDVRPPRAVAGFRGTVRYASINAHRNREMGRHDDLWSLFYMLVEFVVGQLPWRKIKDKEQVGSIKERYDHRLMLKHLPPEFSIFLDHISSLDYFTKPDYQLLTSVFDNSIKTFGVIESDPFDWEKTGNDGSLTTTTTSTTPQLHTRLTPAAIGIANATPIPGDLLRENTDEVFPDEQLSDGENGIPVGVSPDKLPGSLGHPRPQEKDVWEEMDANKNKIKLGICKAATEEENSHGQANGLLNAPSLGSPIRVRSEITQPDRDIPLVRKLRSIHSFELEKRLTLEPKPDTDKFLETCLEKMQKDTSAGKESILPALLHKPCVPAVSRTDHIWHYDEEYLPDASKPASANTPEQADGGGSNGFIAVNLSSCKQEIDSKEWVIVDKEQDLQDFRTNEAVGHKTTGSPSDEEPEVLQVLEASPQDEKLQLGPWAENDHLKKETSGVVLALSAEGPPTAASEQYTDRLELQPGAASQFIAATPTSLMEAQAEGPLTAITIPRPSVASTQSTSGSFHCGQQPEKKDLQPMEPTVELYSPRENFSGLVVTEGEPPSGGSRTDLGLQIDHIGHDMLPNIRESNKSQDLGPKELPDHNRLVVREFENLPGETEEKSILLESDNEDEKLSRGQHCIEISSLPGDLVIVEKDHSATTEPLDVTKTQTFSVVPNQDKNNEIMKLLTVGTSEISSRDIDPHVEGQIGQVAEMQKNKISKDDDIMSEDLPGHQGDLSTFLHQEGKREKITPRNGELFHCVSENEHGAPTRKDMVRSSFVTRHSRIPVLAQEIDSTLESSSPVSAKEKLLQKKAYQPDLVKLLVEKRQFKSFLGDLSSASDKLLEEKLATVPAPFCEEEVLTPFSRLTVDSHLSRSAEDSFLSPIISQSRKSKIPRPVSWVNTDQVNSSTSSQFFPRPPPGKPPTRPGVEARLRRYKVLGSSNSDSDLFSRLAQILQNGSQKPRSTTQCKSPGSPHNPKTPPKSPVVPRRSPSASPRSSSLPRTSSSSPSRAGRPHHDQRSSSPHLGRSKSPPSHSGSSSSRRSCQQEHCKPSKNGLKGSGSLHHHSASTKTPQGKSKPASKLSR
Chain of Serine/threonine-protein kinase BRSK1 (Homo sapiens) (Q8TDC3 whole entry): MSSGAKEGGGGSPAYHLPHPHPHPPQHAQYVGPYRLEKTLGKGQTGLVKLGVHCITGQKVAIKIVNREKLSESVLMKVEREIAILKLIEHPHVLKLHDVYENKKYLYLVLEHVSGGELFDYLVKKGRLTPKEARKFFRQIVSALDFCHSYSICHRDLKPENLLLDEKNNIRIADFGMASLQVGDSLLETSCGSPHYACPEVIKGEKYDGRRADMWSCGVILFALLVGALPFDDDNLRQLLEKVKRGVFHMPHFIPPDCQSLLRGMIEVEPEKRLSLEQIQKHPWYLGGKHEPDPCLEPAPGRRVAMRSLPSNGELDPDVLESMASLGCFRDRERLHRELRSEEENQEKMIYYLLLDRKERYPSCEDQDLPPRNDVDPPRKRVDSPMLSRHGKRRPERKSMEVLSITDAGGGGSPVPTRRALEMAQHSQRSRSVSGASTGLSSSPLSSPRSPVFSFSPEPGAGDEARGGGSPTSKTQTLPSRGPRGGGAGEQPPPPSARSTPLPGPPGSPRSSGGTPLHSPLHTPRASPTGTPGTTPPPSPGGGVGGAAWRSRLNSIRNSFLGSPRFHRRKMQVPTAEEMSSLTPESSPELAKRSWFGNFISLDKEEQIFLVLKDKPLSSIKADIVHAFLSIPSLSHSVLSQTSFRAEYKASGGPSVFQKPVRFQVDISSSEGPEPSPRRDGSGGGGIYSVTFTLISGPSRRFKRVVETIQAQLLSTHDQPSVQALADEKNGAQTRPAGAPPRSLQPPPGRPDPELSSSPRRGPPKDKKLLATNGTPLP
Chain of Proto-oncogene tyrosine-protein kinase receptor Ret (Homo sapiens), P07949 [V804L] (P07949 whole entry V804L, the tested form may be a part): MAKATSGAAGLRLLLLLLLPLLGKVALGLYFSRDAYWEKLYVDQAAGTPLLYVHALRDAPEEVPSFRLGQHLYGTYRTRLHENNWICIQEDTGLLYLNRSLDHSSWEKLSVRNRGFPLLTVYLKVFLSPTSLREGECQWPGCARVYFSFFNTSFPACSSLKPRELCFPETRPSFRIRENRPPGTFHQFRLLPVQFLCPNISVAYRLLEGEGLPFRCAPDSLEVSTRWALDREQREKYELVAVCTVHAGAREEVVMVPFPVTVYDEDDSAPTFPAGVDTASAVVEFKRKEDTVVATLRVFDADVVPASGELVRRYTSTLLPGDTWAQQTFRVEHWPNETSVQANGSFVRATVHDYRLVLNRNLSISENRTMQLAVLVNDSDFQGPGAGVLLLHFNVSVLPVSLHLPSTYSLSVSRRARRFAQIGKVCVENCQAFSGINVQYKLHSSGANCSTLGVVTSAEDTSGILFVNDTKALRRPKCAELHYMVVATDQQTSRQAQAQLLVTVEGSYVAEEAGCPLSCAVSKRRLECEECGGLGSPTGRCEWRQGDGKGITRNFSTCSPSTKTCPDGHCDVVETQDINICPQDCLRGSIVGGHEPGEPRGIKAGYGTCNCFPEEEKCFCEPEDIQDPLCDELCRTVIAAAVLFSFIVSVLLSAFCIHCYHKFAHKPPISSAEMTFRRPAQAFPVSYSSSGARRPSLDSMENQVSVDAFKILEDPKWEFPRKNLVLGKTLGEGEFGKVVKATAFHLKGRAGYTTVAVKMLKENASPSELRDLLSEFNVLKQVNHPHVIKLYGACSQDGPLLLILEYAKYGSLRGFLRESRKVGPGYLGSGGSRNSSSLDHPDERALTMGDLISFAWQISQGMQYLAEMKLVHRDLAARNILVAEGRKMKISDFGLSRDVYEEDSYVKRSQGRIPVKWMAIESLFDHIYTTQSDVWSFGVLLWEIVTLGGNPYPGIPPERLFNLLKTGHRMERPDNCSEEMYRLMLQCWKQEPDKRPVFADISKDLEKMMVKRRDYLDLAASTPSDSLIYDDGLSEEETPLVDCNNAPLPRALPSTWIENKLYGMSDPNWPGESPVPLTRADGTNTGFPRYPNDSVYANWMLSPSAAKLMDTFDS
Chain of Dual specificity tyrosine-phosphorylation-regulated kinase 1B (Homo sapiens) (Q9Y463 whole entry, looked up, the tested form may be a part): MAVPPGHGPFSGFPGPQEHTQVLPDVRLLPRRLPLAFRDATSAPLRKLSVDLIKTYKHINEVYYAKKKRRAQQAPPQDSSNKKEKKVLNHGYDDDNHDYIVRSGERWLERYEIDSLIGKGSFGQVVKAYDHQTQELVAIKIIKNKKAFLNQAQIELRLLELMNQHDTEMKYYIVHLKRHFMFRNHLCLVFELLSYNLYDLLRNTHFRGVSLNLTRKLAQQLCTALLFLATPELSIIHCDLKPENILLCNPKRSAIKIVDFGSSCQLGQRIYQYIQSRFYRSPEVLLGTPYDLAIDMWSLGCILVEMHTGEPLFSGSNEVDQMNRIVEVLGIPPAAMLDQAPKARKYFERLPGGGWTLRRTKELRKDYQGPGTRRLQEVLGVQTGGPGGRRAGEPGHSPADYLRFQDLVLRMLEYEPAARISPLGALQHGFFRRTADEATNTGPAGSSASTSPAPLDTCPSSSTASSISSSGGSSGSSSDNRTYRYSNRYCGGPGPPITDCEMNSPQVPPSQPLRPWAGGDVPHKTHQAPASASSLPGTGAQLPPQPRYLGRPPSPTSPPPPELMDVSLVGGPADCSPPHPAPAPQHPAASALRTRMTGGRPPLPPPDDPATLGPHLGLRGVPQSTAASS
Chain of RAC-gamma serine/threonine-protein kinase (Homo sapiens), Q9Y243 [S472D] (Q9Y243 whole entry S472D): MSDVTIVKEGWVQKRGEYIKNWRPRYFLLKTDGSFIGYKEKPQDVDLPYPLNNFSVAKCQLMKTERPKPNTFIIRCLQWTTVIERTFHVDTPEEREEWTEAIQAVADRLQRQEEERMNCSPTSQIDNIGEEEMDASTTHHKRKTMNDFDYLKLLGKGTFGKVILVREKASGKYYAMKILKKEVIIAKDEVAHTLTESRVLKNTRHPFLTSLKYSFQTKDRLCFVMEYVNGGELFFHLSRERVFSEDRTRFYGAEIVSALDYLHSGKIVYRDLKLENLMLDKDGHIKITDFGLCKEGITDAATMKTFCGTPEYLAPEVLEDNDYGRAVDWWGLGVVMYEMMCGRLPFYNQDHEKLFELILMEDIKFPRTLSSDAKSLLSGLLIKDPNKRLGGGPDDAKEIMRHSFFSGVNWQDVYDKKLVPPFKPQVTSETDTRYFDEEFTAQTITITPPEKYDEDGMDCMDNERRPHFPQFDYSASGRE
Chain of Cyclin-dependent kinase-like 4 (Homo sapiens) (Q5MAI5 whole entry, the tested form may be a part): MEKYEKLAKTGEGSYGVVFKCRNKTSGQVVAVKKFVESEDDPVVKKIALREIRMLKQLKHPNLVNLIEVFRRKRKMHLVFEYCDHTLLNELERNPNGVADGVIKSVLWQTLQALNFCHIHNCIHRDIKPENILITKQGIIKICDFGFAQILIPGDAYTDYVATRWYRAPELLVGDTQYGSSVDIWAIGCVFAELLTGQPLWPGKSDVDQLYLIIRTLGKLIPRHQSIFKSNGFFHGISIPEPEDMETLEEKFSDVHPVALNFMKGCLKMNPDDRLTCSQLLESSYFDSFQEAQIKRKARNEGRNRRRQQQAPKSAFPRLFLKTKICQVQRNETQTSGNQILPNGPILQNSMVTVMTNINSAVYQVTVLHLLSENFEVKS

C[C@@H](c1ccccc1)n1nnc2cnc3ccc(-c4cnc5[nH]ccc5c4)cc3c21
Activity [1]: 90% | Activity [2]: 82% | Activity [3]: 58% | Activity [4]: 87% | Activity [5]: 83% | Activity [6]: 86% | Activity [7]: 96% | Activity [8]: 72% | Activity [9]: 36% | Activity [10]: 60% | Activity [11]: -4% | Activity [12]: 35% | Activity [13]: 90% | Activity [14]: 44% | Activity [15]: 6% | Activity [16]: 92% | Activity [17]: 103% | Activity [18]: 48% | Activity [19]: 82% | Activity [20]: 0% | Activity [21]: 47%
